# Experimental data: ChEMBL document CHEMBL4680155, “One-pot synthesis and molecular docking of some new spiropyranindol-2-one derivatives as immunomodulatory agents and in vitro antimicrobial potential with DNA gyrase inhibitor” (Eur J Med Chem, 2020)
# Tests used:
# [1] = tested on: Enterococcus faecalis; assay: Antibacterial activity against Enterococcus faecalis ATCC 29212 assessed as diameter of inhibition zone at 0.5 mg/ml incubated for 24 hrs by agar diffusion method; type: functional; conditions: read-out: DIZ
# [2] = tested on: Staphylococcus aureus; assay: Antibacterial activity against Staphylococcus aureus ATCC 29213 assessed as diameter of inhibition zone at 0.5 mg/ml incubated for 24 hrs by agar diffusion method; type: functional; conditions: read-out: DIZ
# [3] = tested on: Escherichia coli; assay: Antibacterial activity against Escherichia coli ATCC 25922 assessed as diameter of inhibition zone at 0.5 mg/ml incubated for 24 hrs by agar diffusion method; type: functional; conditions: read-out: DIZ
# [4] = tested on: Salmonella typhimurium; assay: Antibacterial activity against Salmonella typhi ATCC 6539 assessed as diameter of inhibition zone at 0.5 mg/ml incubated for 24 hrs by agar diffusion method; type: functional, Salmonella enterica subsp. enterica serovar Typhimurium; conditions: Salmonella enterica, read-out: DIZ
# [5] = tested on: Candida albicans; assay: Antifungal activity against Candida albicans ATCC 10231 assessed as diameter of inhibition zone at 0.5 mg/ml incubated for 24 hrs by agar diffusion method; type: functional; conditions: read-out: DIZ
# [6] = tested on: Aspergillus brasiliensis; assay: Antifungal activity against Aspergillus brasiliensis ATCC 16404 assessed as diameter of inhibition zone at 0.5 mg/ml incubated for 72 hrs by agar diffusion method; type: functional; conditions: read-out: DIZ
# [7] = tested on: Enterococcus faecalis; assay: Antibacterial activity against Enterococcus faecalis ATCC 29212 assessed as reduction in bacterial growth incubated for 1 day by paper disk diffusion method; type: functional; conditions: ATCC 29212, 24 h
# [8] = tested on: Staphylococcus aureus; assay: Antibacterial activity against Staphylococcus aureus ATCC 29213 assessed as reduction in bacterial growth incubated for 1 day by paper disk diffusion method; type: functional; conditions: ATCC 29213, 24 h
# [9] = tested on: Escherichia coli; assay: Antibacterial activity against Escherichia coli ATCC 25922 assessed as reduction in bacterial growth incubated for 1 day by paper disk diffusion method; type: functional; conditions: ATCC 25922, 24 h
# [10] = tested on: Salmonella typhimurium; assay: Antibacterial activity against Salmonella typhi ATCC 6539 assessed as reduction in bacterial growth incubated for 1 day by paper disk diffusion method; type: functional, Salmonella enterica subsp. enterica serovar Typhimurium; conditions: Salmonella enterica, ATCC 6539, 24 h
# [11] = tested on: Candida albicans; assay: Antifungal activity against Candida albicans ATCC 10231 assessed as reduction in bacterial growth incubated for 1 day by paper disk diffusion method; type: functional; conditions: ATCC 10231, 24 h
# [12] = tested on: Aspergillus brasiliensis; assay: Antifungal activity against Aspergillus brasiliensis ATCC 16404 assessed as reduction in bacterial growth incubated for 3 days by paper disk diffusion method; type: functional; conditions: ATCC 16404, 72 h, time 3 day
# [13] = tested on: Enterococcus faecalis; assay: Bactericidal activity against Enterococcus faecalis ATCC 29212 incubated for 24 hrs followed by transferring to freshly prepared broth medium and measured after 24 hrs by broth microdilution assay; type: functional; conditions: time 48 hrs
# [14] = tested on: Staphylococcus aureus; assay: Bactericidal activity against Staphylococcus aureus ATCC 29213 incubated for 24 hrs followed by transferring to freshly prepared broth medium and measured after 24 hrs by broth microdilution assay; type: functional; conditions: time 48 hrs
# [15] = tested on: Escherichia coli; assay: Bactericidal activity against Escherichia coli ATCC 25922 incubated for 24 hrs followed by transferring to freshly prepared broth medium and measured after 24 hrs by broth microdilution assay; type: functional; conditions: time 48 hrs
# [16] = tested on: Salmonella typhimurium; assay: Bactericidal activity against Salmonella typhi ATCC 6539 incubated for 24 hrs followed by transferring to freshly prepared broth medium and measured after 24 hrs by broth microdilution assay; type: functional, Salmonella enterica subsp. enterica serovar […]; conditions: Salmonella enterica, time 48 hrs
# [17] = tested on: Candida albicans; assay: Fungicidal activity against Candida albicans ATCC 10231 incubated for 24 hrs followed by transferring to freshly prepared broth medium and measured after 24 hrs by broth microdilution assay; type: functional; conditions: time 48 hrs
# [18] = tested on: Aspergillus brasiliensis; assay: Fungicidal activity against Aspergillus brasiliensis ATCC 16404 incubated for 72 hrs followed by transferring to freshly prepared broth medium and measured after 24 hrs by broth microdilution assay; type: functional; conditions: time 96 hrs
# [19] = tested on: Staphylococcus aureus; assay: Antibacterial activity against multidrug resistant Staphylococcus aureus ATCC 43300 assessed as diameter of inhibition zone at 0.5 mg/ml incubated for 24 hrs by agar diffusion method; type: functional; conditions: read-out: DIZ
# [20] = tested on: Staphylococcus aureus; assay: Antibacterial activity against multidrug resistant Staphylococcus aureus ATCC 33591 assessed as diameter of inhibition zone at 0.5 mg/ml incubated for 24 hrs by agar diffusion method; type: functional; conditions: read-out: DIZ
# [21] = tested on: Escherichia coli; assay: Antibacterial activity against multidrug resistant Escherichia coli ATCC BAA-196 assessed as diameter of inhibition zone at 0.5 mg/ml incubated for 24 hrs by agar diffusion method; type: functional; conditions: read-out: DIZ
# [22] = tested on: Pseudomonas aeruginosa; assay: Antibacterial activity against multidrug resistant Pseudomonas aeruginosa ATCC BAA-2111 assessed as diameter of inhibition zone at 0.5 mg/ml incubated for 24 hrs by agar diffusion method; type: functional; conditions: read-out: DIZ
# [23] = tested on: Staphylococcus aureus; assay: Antibacterial activity against multidrug resistant Staphylococcus aureus ATCC 43300 assessed as reduction in bacterial growth incubated for 1 day by paper disk diffusion method; type: functional; conditions: ATCC 43300, 24 h
# [24] = tested on: Staphylococcus aureus; assay: Antibacterial activity against multidrug resistant Staphylococcus aureus ATCC 33591 assessed as reduction in bacterial growth incubated for 1 day by paper disk diffusion method; type: functional; conditions: ATCC 33591, 24 h
# [25] = tested on: Escherichia coli; assay: Antibacterial activity against multidrug resistant Escherichia coli ATCC BAA-196 assessed as reduction in bacterial growth incubated for 1 day by paper disk diffusion method; type: functional; conditions: ATCC BAA-196, 24 h
# [26] = tested on: Pseudomonas aeruginosa; assay: Antibacterial activity against multidrug resistant Pseudomonas aeruginosa ATCC BAA-2111 assessed as reduction in bacterial growth incubated for 1 day by paper disk diffusion method; type: functional; conditions: ATCC BAA-2111, 24 h
# [27] = tested on: Staphylococcus aureus; assay: Bactericidal activity against Staphylococcus aureus ATCC 43300 incubated for 24 hrs followed by transferring to freshly prepared broth medium and measured after 24 hrs by broth microdilution assay; type: functional; conditions: time 48 hrs
# [28] = tested on: Staphylococcus aureus; assay: Bactericidal activity against Staphylococcus aureus ATCC 33591 incubated for 24 hrs followed by transferring to freshly prepared broth medium and measured after 24 hrs by broth microdilution assay; type: functional; conditions: time 48 hrs
# [29] = tested on: Escherichia coli; assay: Bactericidal activity against Escherichia coli ATCC BAA-196 incubated for 24 hrs followed by transferring to freshly prepared broth medium and measured after 24 hrs by broth microdilution assay; type: functional; conditions: time 48 hrs
# [30] = tested on: Pseudomonas aeruginosa; assay: Bactericidal activity against Pseudomonas aeruginosa ATCC BAA-2111 incubated for 24 hrs followed by transferring to freshly prepared broth medium and measured after 24 hrs by broth microdilution assay; type: functional; conditions: time 48 hrs
# [31] = tested on: Neutrophil; assay: Immunomodulatory activity in human neutrophils infected with bacteria assessed as increase in bacterial killing by measuring reduced NBT incubated for 30 mins by NBT dye based spectrophotometry; type: functional; set-up: concentration or dose not given beside the values; conditions: 0.5 h
# [32] = target: DNA gyrase (Staphylococcus aureus, UniProt P0A0K8+P20831); assay: Inhibition of Staphylococcus aureus DNA gyrase using relaxed pBR322 DNA as substrate incubated for 45 mins by agarose gel electrophoresis method; type: protein-complex assay
# DNA gyrase, sequence (P0A0K8 whole entry): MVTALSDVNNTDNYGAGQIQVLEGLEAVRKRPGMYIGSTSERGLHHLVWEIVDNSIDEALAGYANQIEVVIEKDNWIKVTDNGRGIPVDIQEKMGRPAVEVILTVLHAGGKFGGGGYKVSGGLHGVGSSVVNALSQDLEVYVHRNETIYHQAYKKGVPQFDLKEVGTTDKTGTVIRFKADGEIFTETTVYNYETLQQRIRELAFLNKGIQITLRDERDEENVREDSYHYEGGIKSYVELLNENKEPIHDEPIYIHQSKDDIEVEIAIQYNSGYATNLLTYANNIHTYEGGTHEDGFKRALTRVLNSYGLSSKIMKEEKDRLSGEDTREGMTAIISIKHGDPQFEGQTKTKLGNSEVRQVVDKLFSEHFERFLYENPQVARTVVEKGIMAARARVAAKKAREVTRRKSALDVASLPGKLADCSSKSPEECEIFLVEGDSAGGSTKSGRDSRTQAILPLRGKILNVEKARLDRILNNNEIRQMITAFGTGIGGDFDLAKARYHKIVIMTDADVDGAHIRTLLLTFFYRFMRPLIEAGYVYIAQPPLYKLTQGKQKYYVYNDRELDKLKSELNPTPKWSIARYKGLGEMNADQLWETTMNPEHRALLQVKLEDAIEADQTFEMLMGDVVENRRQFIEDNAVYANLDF
# DNA gyrase, sequence (P20831 whole entry): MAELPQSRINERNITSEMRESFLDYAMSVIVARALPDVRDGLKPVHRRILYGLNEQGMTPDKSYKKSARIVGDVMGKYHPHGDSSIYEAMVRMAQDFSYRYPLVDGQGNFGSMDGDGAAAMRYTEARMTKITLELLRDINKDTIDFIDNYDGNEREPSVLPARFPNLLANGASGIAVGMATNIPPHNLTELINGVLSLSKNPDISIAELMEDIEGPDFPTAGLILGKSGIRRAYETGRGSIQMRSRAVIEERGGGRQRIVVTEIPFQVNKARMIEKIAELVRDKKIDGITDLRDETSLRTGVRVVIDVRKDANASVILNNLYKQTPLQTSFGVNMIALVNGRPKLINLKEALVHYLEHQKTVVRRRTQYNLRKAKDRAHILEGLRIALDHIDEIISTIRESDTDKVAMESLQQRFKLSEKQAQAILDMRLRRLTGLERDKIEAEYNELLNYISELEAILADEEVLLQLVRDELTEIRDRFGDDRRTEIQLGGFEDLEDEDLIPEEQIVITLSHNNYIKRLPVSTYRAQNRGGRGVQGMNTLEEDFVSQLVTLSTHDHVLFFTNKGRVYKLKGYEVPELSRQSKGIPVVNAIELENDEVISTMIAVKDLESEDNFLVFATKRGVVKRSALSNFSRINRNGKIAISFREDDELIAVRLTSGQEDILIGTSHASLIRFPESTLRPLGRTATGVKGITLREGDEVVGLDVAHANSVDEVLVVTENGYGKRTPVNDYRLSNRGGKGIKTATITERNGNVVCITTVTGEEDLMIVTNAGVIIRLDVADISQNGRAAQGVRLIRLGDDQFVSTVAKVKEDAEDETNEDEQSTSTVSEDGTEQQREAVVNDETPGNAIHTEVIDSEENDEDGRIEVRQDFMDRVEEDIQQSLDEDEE
SMILES,zone of inhibition at 500 µg/mL [1] [mm],zone of inhibition at 500 µg/mL [2] [mm],zone of inhibition at 500 µg/mL [3] [mm],zone of inhibition at 500 µg/mL [4] [mm],zone of inhibition at 500 µg/mL [5] [mm],zone of inhibition at 500 µg/mL [6] [mm],MIC [7] [µg/mL],MIC [8] [µg/mL],MIC [9] [µg/mL],MIC [10] [µg/mL],MIC [11] [µg/mL],MIC [12] [µg/mL],MBC [13] [µg/mL],MBC [14] [µg/mL],MBC [15] [µg/mL],MBC [16] [µg/mL],MFC [17] [µg/mL],MFC [18] [µg/mL],zone of inhibition at 500 µg/mL [19] [mm],zone of inhibition at 500 µg/mL [20] [mm],also measured
CC(=O)C1=C(c2ccccc2)OC(N)=C(C#N)C12C(=O)Nc1ccc(S(=O)(=O)N3CCCCC3)cc12 (stereo unspecified),23,24,22,22,23,19,31.5,35.5,17.8,62.5,15.6,88.3,43.7,58.6,28.4,87.5,31.2,150,25,26,zone of inhibition at 500 µg/mL [21]: 27 mm; zone of inhibition at 500 µg/mL [22]: 25 mm; MIC [23]: 0.97 µg/mL; MIC [24]: 0.78 µg/mL; MIC [25]: 0.97 µg/mL; MIC [26]: 1.95 µg/mL; MBC [27]: 1.94 µg/mL; MBC [28]: 1.56 µg/mL; MBC [29]: 1.55 µg/mL; MBC [30]: 3.9 µg/mL; Activity [31]: 972%; IC50 [32]: 18.1 µM
CCOC(=O)C1=C(c2ccccc2)OC(N)=C(C#N)C12C(=O)Nc1ccc(S(=O)(=O)N3CCCCC3)cc12 (stereo unspecified),24,21,23,24,22,20,15.6,71.1,15.6,15.6,12.5,62.5,31.2,99.5,21.9,20.3,25,125,24,25,zone of inhibition at 500 µg/mL [21]: 26 mm; zone of inhibition at 500 µg/mL [22]: 24 mm; MIC [23]: 1.95 µg/mL; MIC [24]: 1.95 µg/mL; MIC [25]: 1.57 µg/mL; MIC [26]: 3.9 µg/mL; MBC [27]: 2.92 µg/mL; MBC [28]: 3.31 µg/mL; MBC [29]: 2.35 µg/mL; MBC [30]: 6.24 µg/mL; Activity [31]: 95.4%; IC50 [32]: 19.8 µM
CCOC(=O)C1=C(N)OC(C)=C(C(C)=O)C12C(=O)Nc1ccc(S(=O)(=O)N3CCOCC3)cc12 (stereo unspecified),19,23,21,20,20,16,12.5,62.5,15.6,31.2,8.88,88.3,17.6,100,20.3,53.1,15.6,177,23,23,zone of inhibition at 500 µg/mL [21]: 24 mm; zone of inhibition at 500 µg/mL [22]: 20 mm; MIC [23]: 4.44 µg/mL; MIC [24]: 3.9 µg/mL; MIC [25]: 3.9 µg/mL; MIC [26]: 7.81 µg/mL; MBC [27]: 6.66 µg/mL; MBC [28]: 5.07 µg/mL; MBC [29]: 7.8 µg/mL; MBC [30]: 12.5 µg/mL; Activity [31]: 136.7%; IC50 [32]: 25.1 µM
